Measurements: US11419902B2, “Compositions comprising bacterial strains” (4D Pharma Research Limited, priority 2018, dated 2022)

What was measured:
Format in all cases: cell-based
GPR109a = GPR109a RNA expression in differentiated Caco-2 cells (qPCR)
[1] = tested on: ERK signalling (phosphorylated ERK1 and 2/total ERK); experiment: ERK signalling in SKMEL28 cell line (Western blot); conditions: SKMEL28, relative to the negative control (YFCA+)
Procedure: Following 24 h treatment with the appropriate drugs either in presence of 10% bacterial supernatant or absence (YCFA+), protein extracts were obtained by lysing cells in RIPA buffer (R0278; Sigma Aldrich) supplemented with protease inhibitors (cOmplete Protease Inhibitor Cocktail Tablets; Roche, Switzerland) and 1 mM/L sodium orthovanadate, 0.5 mM/L PMSF. Protein quantification was done by the BCA protein assay. Equal amounts of total protein (20 μg/lane) were then separated by SDS-PAGE on 4-15% gradient gel (BioRad) and transferred to polyvinylidene difluoride (PVDF) membranes (Thermo Fisher Scientific, Loughborough). […]
Proteins of interest were detected with the appropriate HRP-conjugated secondary antibody (1:10,000, Thermo Fisher Scientific, Loughborough), developed with the ECL Western blotting Super Signal PicoPlus substrate (34577; Thermo Fisher Scientific, Loughborough), and visualised in Chemidoc XRS Imager (BioRad).
The effects of the following treatments were assessed on the SKMEL28 melanoma cell line (V600E oncogenic mutation in BRAF): (1) MRx0029; (2) Vemurafenib (VEMU) in YCFA+ medium; (3) VEMU and MRx0029; (4) Azacytidine-C (Aza-c) in YCFA+ medium; (5) Aza-c and MRX0029; (6) VEMU, Aza-c and MRx0029.

[2] = tested on: Occludin, Villin, TJP1 and TJP2; experiment: Tight junction protein gene expression in HT29-mtx cells (qRT-PCR); conditions: 2 h incubation
Source text: The ability of MRx0029 to cause any intestinal barrier dysfunction was investigated. HT29-mtx epithelial, mucin-producing cell monolayers were used as an in vitro model to evaluate gut barrier disruption and immune stimulation following treatment with MRx0029.
Total RNA was extracted using the RNeasy mini kit (Qiagen, Manchester, JUK) according to the manufacturer's instructions, and the RNA concentration determined by absorbance at 260/280 nm using a spectrophotometer (nano-Drop ND-1000; Thermo Scientific, Wilmington, Del.). For mRNA expression analysis, cDNA was prepared from total RNA using the High-Capacity cDNA reverse transcription kit (Applied Biosystems, UK) according to the manufacturer's instructions. The reverse transcription reactions were performed in a Thermo cycler (Biometra, Germany) at 25° C. for 10 min, 37° C. for 120 min, and 85° C. for 5 min, hold on at 4° C. Resulting cDNA was amplified in duplicates by the SYBR-Green PCR assay, and products were detected on QuantStudio 6 flex real-time PCR machine (Applied Biosystems, UK) using a standardised profile (initial denaturation of 95° C. for 10 minutes, followed by 40 cycles of 15 seconds of denaturation at 95° C. and 60 seconds of annealing/extension at 60/65° C., depending on the primers. A dissociation stage was added after the 40 cycles to generate a melting curve. Analysis was performed using the Applied Biosystems QuantStudio Real-Time PCR Software v1.2.
RNA was isolated and Quantitative RT-PCR (qRT-PCR) analysis was performed to characterize the changes in gene expression of tight junction proteins during incubation with MRx0029. The administration of MRx0029 enhanced Occludin, Villin, Tight Junction Protein 1 and 2 (respectively TJP1 and TJP2) mRNA expression after 2 h incubation (FIG. 14B).

PBMCs = experiment: Basic cell phenotyping on PBMCs from healthy donors (flow cytometry)
Procedure: Frozen healthy human PBMCs were purchased from Stem Cells Technologies (Cambridge UK). Briefly cells were thaw and left to rest overnight in full growth media (RPMI 1640 with 10% FBS, 2 mM L. Glutamine, 55 μM 2-Mercapoethanol and 100 U/ml penicillin, 100 μg/ml streptomycin) in CO2 incubator at 37° C. For the experiment cells were plated at a density of 750,000 Cell/well in 48 well plates and treated in full growth media with 10% bacteria supernatants in the presence or absence of 1 ng/ml LPS. Cell culture media was added to untreated wells. Cells were left to rest for 72 h, thereafter cell free supernatants were collected and spun down for 3 minutes at 10,000 g at 4° C. Samples were stored at −80° C. for cytokine analysis.
1.5×10^6 cells per sample were stained with viability fixable dye (Miltenyi) to discriminate between live and dead cells for 10 min at RT. Afterwards the cells were stained with the cocktail of antibodies listed below (Miltenyi) for basic immunophenotyping (CD3/CD4/CD8/CD25/CD127 and CD19) and incubated for 10 min at RT.
Experiments were carried out to measure the percentage of the following cell populations: • CD4+CD3+ cells (markers of CD4 T-helper cells) • CD4+CD25+ cells (markers of CD4+ activated cells) • CD25++[…] cells out of the CD4+ cell population (markers of Tregs cells) • CD8+CD3+ cells (markers of cytotoxic T cells) • CD25+CD8+ cells (markers of CD8+ activated cells) • CD19+CD3− cells (markers of B cells).
The ratio of CD8+/Tregs and the ratio of activated CD8/Treg cells were determined.
Flow cytometry analysis of different cell populations 1.5×10^6 cells per sample were stained with viability fixable dye (Miltenyi) to discriminate between live and dead cells for 10 min at RT. Afterwards the cells were stained with the cocktail of antibodies listed below (Miltenyi) for basic immunophenotyping (CD3/CD4/CD8/CD25/CD127 and CD19) and incubated for 10 min at RT. Cells were then washed and resuspended in PBS and immediately analysed using a FACS Aria II equipped with Blue (488 nm), Red (633 nm) and Violet (405 nm) lasers. FMOs were included throughout all the experiments. For the analysis Flowjo version 10.4.2 software (FlowJo, LLC) was used.

## Megasphaera massiliensis MRx0029
GPR109a; PMA plus supernatant vs PMA alone (or PMA in YCFA+ medium)
  expression of GPR109a RNA with PMA: greater expression of GPR109a RNA
GPR109a; without PMA
  expression of GPR109a: increased expression of GPR109a
[1]
  ERK signalling: reduced ERK signalling
[2]
  Occludin mRNA expression: enhanced
  TJP1 mRNA expression: enhanced
  TJP2 mRNA expression: enhanced
  Villin mRNA expression: enhanced
PBMCs; 10% bacteria supernatant, 72 h
  percentage of B cells: did not significantly change
  percentage of CD4+ activated cells: did not significantly change
  percentage of CD4 T-helper cells: did not significantly change
  percentage of CD8+ activated cells: did not significantly change
  percentage of CD25++CD17− cells (Tregs): selectively reduced the percentage of Tregs
  percentage of cytotoxic T cells: did not significantly change
PBMCs; vs untreated cells
  ratio of CD8+/Tregs: increased the ratio of CD8+/Tregs
  ratio of activated CD8/Treg cells: increased
